Measured values as given in ChEMBL document CHEMBL3994622, “Design and synthesis of new RAF kinase-inhibiting antiproliferative quinoline derivatives. Part 2: Diarylurea derivatives” (Eur J Med Chem, 2017).

Key:
Format in all cases: functional
NCI/ADR-RES = assay: Growth inhibition of human NCI/ADR-RES cells assessed as cell growth at 0.003 uM incubated for 48 hrs by sulforhodamine B assay relative to control; conditions: read-out: Activity
SK-MEL-2 [1] = assay: Growth inhibition of human SK-MEL-2 cells assessed as cell growth at 3 uM incubated for 48 hrs by sulforhodamine B assay relative to control; conditions: SK-MEL-2, 48 h, read-out: Activity
SK-MEL-2 [2] = assay: Growth inhibition of human SK-MEL-2 cells assessed as cell growth at 0.3 uM incubated for 48 hrs by sulforhodamine B assay relative to control; conditions: SK-MEL-2, 48 h, read-out: Activity
SNB-19 [3] = assay: Growth inhibition of human SNB19 cells assessed as cell growth at 0.3 uM incubated for 48 hrs by sulforhodamine B assay relative to control; conditions: SNB-19, 48 h, read-out: Activity
SW-620 [4] = assay: Growth inhibition of human SW620 cells assessed as cell growth at 30 uM incubated for 48 hrs by sulforhodamine B assay relative to control; conditions: SW-620, 48 h, read-out: Activity
SNB-19 [5] = assay: Growth inhibition of human SNB19 cells assessed as cell growth at 3 uM incubated for 48 hrs by sulforhodamine B assay relative to control; conditions: SNB-19, 48 h, read-out: Activity
SW-620 [6] = assay: Growth inhibition of human SW620 cells assessed as cell growth at 0.3 uM incubated for 48 hrs by sulforhodamine B assay relative to control; conditions: SW-620, 48 h, read-out: Activity
T47D [7] = assay: Growth inhibition of human T47D cells assessed as cell growth at 3 uM incubated for 48 hrs by sulforhodamine B assay relative to control; conditions: read-out: Activity
NCI-H226 = assay: Growth inhibition of human NCI-H226 cells assessed as cell growth at 3 uM incubated for 48 hrs by sulforhodamine B assay relative to control; conditions: NCI-H226, 48 h, read-out: Activity
ACHN = assay: Growth inhibition of human ACHN cells assessed as cell growth at 0.3 uM incubated for 48 hrs by sulforhodamine B assay relative to control; conditions: read-out: Activity
MDA-MB-435 = assay: Growth inhibition of human MDA-MB-435 cells assessed as cell growth at 0.003 uM incubated for 48 hrs by sulforhodamine B assay relative to control; conditions: MDA-MB-435, 48 h, read-out: Activity
HT-29 = assay: Growth inhibition of human HT-29 cells assessed as cell growth at 0.03 uM incubated for 48 hrs by sulforhodamine B assay relative to control; conditions: HT-29, 48 h, read-out: Activity
DU-145 [8] = assay: Growth inhibition of human DU145 cells assessed as cell growth at 0.3 uM incubated for 48 hrs by sulforhodamine B assay relative to control; conditions: DU-145, 48 h, read-out: Activity
MOLT-4 = assay: Growth inhibition of human MOLT4 cells assessed as cell growth at 100 uM incubated for 48 hrs by sulforhodamine B assay relative to control; conditions: MOLT-4, 48 h, read-out: Activity
SK-OV-3 = assay: Growth inhibition of human SKOV3 cells assessed as cell growth at 10 uM incubated for 48 hrs by sulforhodamine B assay relative to control; conditions: SK-OV-3, 48 h, read-out: Activity
T47D [9] = assay: Growth inhibition of human T47D cells assessed as cell growth at 0.1 uM incubated for 48 hrs by sulforhodamine B assay relative to control; conditions: read-out: Activity
SNB-19 [10] = assay: Growth inhibition of human SNB19 cells assessed as cell growth at 10 uM incubated for 48 hrs by sulforhodamine B assay relative to control; conditions: SNB-19, 48 h, read-out: Activity
HCT-15 [11] = assay: Growth inhibition of human HCT15 cells assessed as cell growth at 0.1 uM incubated for 48 hrs by sulforhodamine B assay relative to control; conditions: HCT-15, 48 h, read-out: Activity
SNB-75 = assay: Growth inhibition of human SNB75 cells assessed as cell growth at 0.01 uM incubated for 48 hrs by sulforhodamine B assay relative to control; conditions: SNB-75, 48 h, read-out: Activity
OVCAR-8 = assay: Growth inhibition of human OVCAR8 cells assessed as cell growth at 100 uM incubated for 48 hrs by sulforhodamine B assay relative to control; conditions: OVCAR-8, 48 h, read-out: Activity
NCI-H460 = assay: Growth inhibition of human NCI-H460 cells assessed as cell growth at 1 uM incubated for 48 hrs by sulforhodamine B assay relative to control; conditions: NCI-H460, 48 h, read-out: Activity
SF-295 [12] = assay: Growth inhibition of human SF295 cells assessed as cell growth at 1 uM incubated for 48 hrs by sulforhodamine B assay relative to control; conditions: SF-295, 48 h, read-out: Activity
SW-620 [13] = assay: Growth inhibition of human SW620 cells assessed as cell growth at 0.01 uM incubated for 48 hrs by sulforhodamine B assay relative to control; conditions: SW-620, 48 h, read-out: Activity
HCT-15 [14] = assay: Growth inhibition of human HCT15 cells assessed as cell growth at 1 uM incubated for 48 hrs by sulforhodamine B assay relative to control; conditions: HCT-15, 48 h, read-out: Activity
SF-295 [15] = assay: Growth inhibition of human SF295 cells assessed as cell growth at 0.1 uM incubated for 48 hrs by sulforhodamine B assay relative to control; conditions: SF-295, 48 h, read-out: Activity
UO-31 = assay: Growth inhibition of human UO31 cells assessed as cell growth at 0.1 uM incubated for 48 hrs by sulforhodamine B assay relative to control; conditions: UO-31, 48 h, read-out: Activity
HCC 2998 = assay: Growth inhibition of human HCC2998 cells assessed as cell growth at 0.1 uM incubated for 48 hrs by sulforhodamine B assay relative to control; conditions: HCC 2998, 48 h, read-out: Activity
BT-549 [16] = assay: Growth inhibition of human BT549 cells assessed as cell growth at 1 uM incubated for 48 hrs by sulforhodamine B assay relative to control; conditions: BT-549, 48 h, read-out: Activity
DU-145 [17] = assay: Growth inhibition of human DU145 cells assessed as cell growth at 10 uM incubated for 48 hrs by sulforhodamine B assay relative to control; conditions: DU-145, 48 h, read-out: Activity
SN12C = assay: Growth inhibition of human SN12C cells assessed as cell growth at 10 uM incubated for 48 hrs by sulforhodamine B assay relative to control; conditions: read-out: Activity
BT-549 [18] = assay: Growth inhibition of human BT549 cells assessed as cell growth at 10 uM incubated for 48 hrs by sulforhodamine B assay relative to control; conditions: BT-549, 48 h, read-out: Activity
RXF 393 = assay: Growth inhibition of human RXF393 cells assessed as cell growth at 100 uM incubated for 48 hrs by sulforhodamine B assay relative to control; conditions: RXF 393, 48 h, read-out: Activity
786-0 = assay: Growth inhibition of human 786-0 cells assessed as cell growth at 1 uM incubated for 48 hrs by sulforhodamine B assay relative to control; conditions: 786-0, 48 h, read-out: Activity
OVCAR-3 [19] = assay: Growth inhibition of human OVCAR3 cells assessed as cell growth at 0.1 uM incubated for 48 hrs by sulforhodamine B assay relative to control; conditions: OVCAR-3, 48 h, read-out: Activity
OVCAR-3 [20] = assay: Growth inhibition of human OVCAR3 cells assessed as cell growth at 10 uM incubated for 48 hrs by sulforhodamine B assay relative to control; conditions: OVCAR-3, 48 h, read-out: Activity

SMILES	growth at 0.003 µM (NCI/ADR-RES)	growth at 3 µM (SK-MEL-2 [1])	growth at 0.3 µM (SK-MEL-2 [2])	growth at 0.3 µM (SNB-19 [3])	growth at 30 µM (SW-620 [4])	growth at 3 µM (SNB-19 [5])	growth at 0.3 µM (SW-620 [6])	growth at 3 µM (T47D [7])	growth at 3 µM (NCI-H226)	growth at 0.3 µM (ACHN)	growth at 0.003 µM (MDA-MB-435)	growth at 0.03 µM (HT-29)	growth at 0.3 µM (DU-145 [8])	growth at 100 µM (MOLT-4)	growth at 10 µM (SK-OV-3)	growth at 0.1 µM (T47D [9])	growth at 10 µM (SNB-19 [10])	growth at 0.1 µM (HCT-15 [11])	growth at 0.01 µM (SNB-75)	growth at 100 µM (OVCAR-8)	other results
COc1cc2cc(Oc3ccc(NC(=O)Nc4ccc(Cl)c(C(F)(F)F)c4)cc3)c(C)nc2cc1OC	104%	-29%	101%	96%	-87%	24%	99%	19%	11%	95%	98%	100%	95%								
COc1cc2cc(Oc3ccc(NC(=O)Nc4ccc(Cl)c(Cl)c4)cc3)c(C)nc2cc1OC														-12%	41%	103%	25%	102%	89%	-100%	growth at 1 µM (NCI-H460): 82%; growth at 1 µM (SF-295 [12]): 80%; growth at 0.01 µM (SW-620 [13]): 101%; growth at 1 µM (HCT-15 [14]): 88%; growth at 0.1 µM (SF-295 [15]): 87%; growth at 0.1 µM (UO-31): 101%; growth at 0.1 µM (HCC 2998): 101%; growth at 1 µM (BT-549 [16]): 78%; growth at 10 µM (DU-145 [17]): 19%; growth at 10 µM (SN12C): 19%; growth at 10 µM (BT-549 [18]): 5%; growth at 100 µM (RXF 393): -65%; growth at 1 µM (786-0): 86%; growth at 0.1 µM (OVCAR-3 [19]): 116%; growth at 10 µM (OVCAR-3 [20]): -25%
COc1cc2cc(Oc3ccc(NC(=O)Nc4cc(C(F)(F)F)cc(C(F)(F)F)c4)cc3)c(C)nc2cc1OC														-42%	-75%	95%	-79%	94%	81%	-43%	growth at 1 µM (NCI-H460): 49%; growth at 1 µM (SF-295 [12]): 31%; growth at 0.01 µM (SW-620 [13]): 100%; growth at 1 µM (HCT-15 [14]): 41%; growth at 0.1 µM (SF-295 [15]): 92%; growth at 0.1 µM (UO-31): 73%; growth at 0.1 µM (HCC 2998): 107%; growth at 1 µM (BT-549 [16]): 86%; growth at 10 µM (DU-145 [17]): -2%; growth at 10 µM (SN12C): -75%; growth at 10 µM (BT-549 [18]): -64%; growth at 100 µM (RXF 393): -78%; growth at 1 µM (786-0): 87%; growth at 0.1 µM (OVCAR-3 [19]): 101%; growth at 10 µM (OVCAR-3 [20]): -90%
Cc1nc2cc(O)c(O)cc2cc1Oc1ccc(NC(=O)Nc2ccc(Cl)c(Cl)c2)cc1	100%	107%	118%	117%	16%	96%	100%	100%	102%	107%	94%	103%	106%								
